Consider 7 compounds from US11673866B2, “Estrogen receptor beta ligands for the prevention and treatment of multiple sclerosis (MS) and other demyelinating, inflammatory and neurodegenerative diseases” (The Board of Trustees of the University of Illinois, priority 2018, dated 2023).

“Also recorded” adds a separate entry of the source.

Experiment [1] addresses T1, ERα (Homo sapiens, UniProt P03372).
T1 sequence (P03372 1-595): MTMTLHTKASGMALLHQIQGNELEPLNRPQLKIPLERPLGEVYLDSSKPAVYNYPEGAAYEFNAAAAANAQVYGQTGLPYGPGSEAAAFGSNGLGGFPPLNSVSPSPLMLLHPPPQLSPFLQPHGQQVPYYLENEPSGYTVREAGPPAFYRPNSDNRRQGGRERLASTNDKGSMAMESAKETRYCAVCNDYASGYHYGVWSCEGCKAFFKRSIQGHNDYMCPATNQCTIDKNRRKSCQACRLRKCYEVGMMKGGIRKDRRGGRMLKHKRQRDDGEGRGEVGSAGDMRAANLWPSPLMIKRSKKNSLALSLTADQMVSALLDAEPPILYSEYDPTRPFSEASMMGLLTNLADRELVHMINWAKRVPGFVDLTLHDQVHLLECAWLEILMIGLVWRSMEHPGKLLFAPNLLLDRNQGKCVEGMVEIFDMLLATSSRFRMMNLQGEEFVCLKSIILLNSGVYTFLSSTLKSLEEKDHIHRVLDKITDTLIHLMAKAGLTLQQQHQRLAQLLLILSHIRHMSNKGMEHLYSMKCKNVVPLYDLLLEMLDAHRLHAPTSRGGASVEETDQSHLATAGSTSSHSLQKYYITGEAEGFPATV
Description: Relative binding affinity (RBA) to estrogen receptor alpha, radiometric measurement. Conditions: relative value to 100% for E2 by radiometric measurement.

Experiment [2] deals with primary OPCs/OLs. In words: Primary OPC/OL differentiation and survival (O4, MOG, DAPI staining). The format is cell-based, mouse. The following applies: for number of MOG+ OLs: vs vehicle-treated cells, FIG. 12B. The text has this: FIG. 12A is representative images of primary OPCs/OLs from wells containing differentiating media in the presence of different analogues. OLs were immunostained with an antigen on the surface of oligodendrocyte progenitors, O4, a marker of mature oligodendrocytes, myelin oligodendrocyte glycoprotein, MOG and co-stained with nuclear stain DAPI.
FIG. 12B and FIG. 12C show quantification of the effects of treatment on the number of MOG+ OLs and the number of total cells (DAPI), respectively. […] There were 3 wells/treatment group. n=3 independent experiments were performed. One-Way ANOVA with Dunnett's multiple comparisons test.
The effect on cell differentiation and survival of estrogen receptor § (ERP) ligand IndCl and analogs were investigated. Some estrogen receptor § (ERP) ligands increase primary mouse oligodendrocyte differentiation (FIGS. 12A-12C).

The target of experiment [3] is ERβ (Homo sapiens, UniProt Q92731). Description: Relative binding affinity (RBA) to estrogen receptor beta, radiometric measurement. The following applies: for β/α Ratio: ratio of RBA ERβ to RBA ERα; for RBA ERβ: relative value to 100% for E2 by radiometric measurement.
ERβ, sequence (Q92731 whole entry, species assumed): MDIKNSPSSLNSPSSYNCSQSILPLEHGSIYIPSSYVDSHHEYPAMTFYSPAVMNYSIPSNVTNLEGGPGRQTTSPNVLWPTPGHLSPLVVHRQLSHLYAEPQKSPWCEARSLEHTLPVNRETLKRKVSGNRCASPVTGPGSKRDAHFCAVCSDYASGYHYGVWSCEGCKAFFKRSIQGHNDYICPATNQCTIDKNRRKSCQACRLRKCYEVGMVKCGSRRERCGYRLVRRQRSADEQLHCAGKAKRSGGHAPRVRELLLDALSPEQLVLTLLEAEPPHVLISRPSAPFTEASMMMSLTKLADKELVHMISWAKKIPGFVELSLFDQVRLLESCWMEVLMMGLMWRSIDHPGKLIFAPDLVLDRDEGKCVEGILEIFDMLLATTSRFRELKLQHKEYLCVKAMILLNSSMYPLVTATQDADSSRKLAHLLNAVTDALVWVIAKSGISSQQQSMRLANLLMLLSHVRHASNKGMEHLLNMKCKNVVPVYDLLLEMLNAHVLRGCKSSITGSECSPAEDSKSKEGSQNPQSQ
The subject of experiment [4] is primary oligodendrocyte and oligodendrocyte precursor cells (OL/OPCs). In words: Primary OPC culture differentiation (MBP immunostaining, DAPI). The following applies: for %MBP+/DAPI: level of production of myelin basic protein in primary OPC/OL cultures; for MBP+/DAPI ratio (OPC differentiation): FIG. 10B. Also on record: key to %MBP+/DAPI: *: The level of production of myelin basic protein (MBP); ---: reduction of MBP. The format is cell-based, mouse. How it is done:
Primary OPC Cultures: Primary OPCs, isolated from postnatal day P1 C57BL/6 male and female mouse cortices as described previously, were treated with 10 nM ligands in differentiating medium for 3 days (Tiwari-Woodruff et al., 2001; Tiwari-Woodruff et al., 2006). Primary OPC were cultured into 8-well chamber slides (three wells per condition, 2.5×10^5 cells/well) for three days to attach and […] in differentiating media (consisting of DMEM-F12 with triiodothyronine- and thyroxine-containing Sato as well as penicillin, streptomycin, insulin, N-acetyl-L-cysteine, forskolin, ciliary neurotrophic factor, neurotrophin-3, and platelet-derived growth factor receptor α (Tiwari-Woodruff et al., 2001)). A positive control (IndCl), a negative control (Vehicle consisting of the media+EtOH mixture used to dissolve IndCl), and a normal control (differentiating media alone) were used for comparison. At the end of the treatment period, cells were fixed, stained by immunocytochemistry (primary antibody polyclonal chicken myelin basic protein (MBP, Millipore AB9348), shown in green and co-stained with nuclear stain—DAPI shown in blue), and imaged with an Olympus BX61 confocal microscope (Olympus America Inc., Center Valley, Pa.) at 10× magnification (3 images per well). Cells were counted using the ImageJ multipoint tool, and counts were then divided by the image area (mm^2). Average cell density for each condition was then divided by the normal condition cell density. Analysis of OL differentiation consisted of counting the number of MBP+ cells and process extensions that were longer than the respective cell-body diameter and tracking the number of highly branched MBP+ cells (with three or more processes) (Monnerie et al., 2017). Statistics were performed using GraphPad Prism 6 Software (La Jolla, Calif.). One-way ANOVA with Tukey's posthoc test for multiple comparisons was used to generate p-values, and data are presented as mean SEM (with α≤0.05).
Primary OPC cultures were used as a convenient cell-based assay to characterize the proliferation and/or differentiation effects of the new IndCl analogues and to select those most suitable for more extensive studies to be done in comparison with the parental ligand, IndCl. 48 hours after plating OPCs, one of seven IndCl analogues (FIG. 1A) was added to differentiating media at a concentration of 10 nM (De Angelis et al., 2005; Saijo et al., 2011). OPCs were allowed to differentiate for 3 days in the presence of IndCl or analogues, at which point they were fixed, immunostained for OPC/OL markers, and quantified. […] The total number of cells in culture was not altered by any treatment (FIGS. 1B and 1D).

Regarding `Cc1cc(O)ccc1-n1nc2ccc(O)cc2c1Br` [IndBr-o-Me, 3-bromo-2-(4-hydroxy-2-methylphenyl)-2H-indazol-5-ol], the “RBA ERα” value in experiment [1] was 1.22%. The “number of MOG+ OLs” value in experiment [2] was “significant increase”. In addition, in experiment [3], the “β/α Ratio” value worked out at 9.8 and the “RBA ERβ” value was 11.99%.

Consider `Oc1ccc(-n2nc3ccc(O)c(Cl)c3c2Cl)c(Cl)c1` [IndCl-o-Cl-4-Cl, 2-(2-chloro-4-hydroxyphenyl)-3,4-dichloro-2H-indazol-5-ol], for which the “%MBP+/DAPI” value in experiment [4] is “*”. Besides, in experiment [1], the “RBA ERα” value is reported as 0.33%. For the same compound, in experiment [3], the “β/α Ratio” value was determined as 0.46 and the “RBA ERβ” value came out at 0.73%.

`Oc1cc(F)c(-n2nc3ccc(O)c(Cl)c3c2Cl)c(F)c1` [IndCl-o-F2-4-Cl, 3,4-dichloro-2-(2,6-difluoro-4-hydroxyphenyl)-2H-indazol-5-ol]: the “MBP+/DAPI ratio (OPC differentiation)” value in experiment [4] was “greatest increase”. Further, the “RBA ERα” value in experiment [1] came to 0.076%. For the same compound, in experiment [3], the “β/α Ratio” value was found to be 3.6 and the “RBA ERβ” value is 0.28%.

Take `Oc1ccc(-n2nc3ccc(O)cc3c2Cl)c(I)c1` [IndCl-o-I, 2-(2-iodo-4-hydroxyphenyl)-3-chloro-2H-indazol-5-ol]: in experiment [4] (10 nM, 3 days in differentiating media, vs vehicle-treated cells), the “number of MBP+ OLs (differentiated OLs)” value was “significant increase; also recorded: significantly increased”. Further, in experiment [4] (10 nM, vs vehicle-treated cells), the “branched OLs / complex branching cells” value is “increase in the percentage of branched OLs”. The “RBA ERα” value in experiment [1] came out at 0.34%. Further, in experiment [3], the “β/α Ratio” value stood at 15.7 and the “RBA ERβ” value is given as 5.38%.

As for `Oc1ccc(-n2nc3ccc(O)cc3c2Cl)c(O)c1` [IndCl-o-OH, 4-(3-chloro-5-hydroxy-2H-indazol-2-yl)benzene-1,3-diol], the “MBP+/DAPI ratio (OPC differentiation)” value in experiment [4] is on record as “greatest increase”. Also, in experiment [1], the “RBA ERα” value was found to be 0.062%. For the same compound, in experiment [3], the “β/α Ratio” value was 48.2 and the “RBA ERβ” value was determined as 2.99%.

As for `Oc1ccc(-n2nc3ccc(O)cc3c2F)c(Br)c1` [IndF-o-Br, 2-(2-bromo-4-hydroxyphenyl)-3-fluoro-2H-indazol-5-ol], the “RBA ERα” value in experiment [1] is reported as 0.37%. Moreover, the “number of total cells (DAPI)” value in experiment [2] (FIG. 12C) is “significant increase”. Moreover, the “number of MOG+ OLs” value in experiment [2] is reported as “significant increase”. In experiment [3], the “β/α Ratio” value is reported as 3.3 and the “RBA ERβ” value came to 1.22%.

On to `Cc1cc(O)ccc1-n1nc2ccc(O)cc2c1F` [IndF-o-Me, 3-fluoro-2-(4-hydroxy-2-methylphenyl)-2H-indazol-5-ol], for which the “%MBP+/DAPI” value in experiment [4] was “* * * * *”. In experiment [1], the “RBA ERα” value is on record as 0.11%. Besides, the “number of MOG+ OLs” value in experiment [2] is “significant increase”. Besides, in experiment [3], the “β/α Ratio” value is given as 3.4 and the “RBA ERβ” value stood at 0.37%.
